Reference: patent US20180353507A1, “METHODS OF PREVENTING OR TREATING HYPOGLYCEMIA BY ADMINISTERING A GPR119 AGONIST” (Merck Sharp & Dohme Corp., priority 2015, published 2018)

Assays:
[1] = tested on: male Wistar Han rats; test: Hyperinsulinemic-hypoglycemia clamp study; format: in vivo; conditions: for change of systemic blood glucose level during clamp / glucose infusion rate needed to maintain blood glucose at 50 mg/dl: 60 minutes prior to clamp; for change of systemic blood glucose level during clamp: FIG. 6A; for glucose infusion rate needed to maintain blood glucose at 50 mg/dl: FIG. 6B; for systemic epinephrine release at hypoglycemic status: FIG. 7C; for c-peptide release: FIG. 7D
Method: FIG. 5 illustrates a scheme and time-course depiction of the hyperinsulinemic-hypoglycemia clamp study performed in rats as described in EXAMPLE 4. Rats were recovered from surgery stress and pre-treated with vehicle, GLIBENCLAMIDE (5 mpk), or GPR119 agonist Compound B (10 mpk) 60 minutes prior to initiation of the clamp. From time zero, rats received an insulin bolus injection initially, then were simultaneously infused with insulin at a steady rate and glucose at an adjusted rate based on the plasma glucose level measured at every 10 minutes. Vertical bars indicate the time points when the blood specimens were collected for measurements of insulin, C-peptide, glucagon, and epinephrine/norepinephrine (0 min, 30 min, 60 min, 90 min and 120 min).
A hyperinsulinemic-hypoglycemia clamp study was performed in male Wistar Han rats as shown in FIG. 5 and described below to explore the potential roles of GPR119 agonists in regulating glucagon secretion at the hypoglycemic status. Three groups were studied, those treated with: (1) vehicle, (2) GPR119 agonist, Compound B, C, F, H, I, M and V (see Table 1 and Table 2), at 10, 30, 100, 100, 100, 30 and 30 mpk, respectively, or (3) GLIBENCLAMIDE, a sulfonylurea insulin secretagogue known to cause hypoglycemia, at 5 mpk. Blood samples (100-150 μl) were collected for insulin, C-peptide, glucagon, and epinephrine/norepinephrine measurements. Terminal bleeding was analyzed for PK measurement.
FIGS. 5, 6A-B, 7A-D and 8A-L illustrate the hyperinsulinemic-hypoglycemia clamp study of EXAMPLE 4. FIG. 5 is a scheme and time-course depiction of the hyperinsulinemic-hypoglycemia clamp study performed in rats. Vertical bars indicate the time points when the rats were infused with compound, or insulin/glucose, or blood specimens were collected for measurements of insulin, C-peptide, glucagon, and epinephrine/norepinephrine. After recovered from surgery stress, rats were pre-treated with vehicle, GLIBENCLAMIDE (5 mpk), or GPR119 agonist Compound B (10 mpk) 60 minutes prior to initiation of the clamp. From time zero, rats received an initial insulin bolus injection followed by simultaneous infusion of insulin at a steady rate and glucose at an adjusted rate. Rat plasma glucose levels (FIG. 6A) were monitored periodically, and the glucose infusion rate (FIG. 6B) was adjusted so that the blood glucose level would be maintained at 50 mg/dl.

[2] = tested on: pancreas; test: In situ rat pancreatic perfusion, insulin and glucagon release; parameters: species or system Wistar Han rats; conditions: 500 nM compound, vs vehicle
Method: Male Wistar Han rats were purchased from Charles River Laboratories Inc. at 6 weeks of age and housed 2 per cage for two weeks with food and water ad libitum. In Situ Pancreatic perfusions were performed when the rats were eight weeks old. All procedures were performed in accordance with relevant guidelines and regulations. Food was removed 4-5 hours prior to surgery. For each surgery, the rat was fully sedated with 100 mg/kg intraperitoneal (i.p.) Na-pentobarbital (NEMBUTAL) anesthesia. The depth of anesthesia was determined by a “paw pinch” test. Surgery was not initiated until the rat was fully sedated. If necessary an additional 50 mg/kg i.p. dose (50% of original) of NEMBUTAL was given. The peritoneal cavity was opened and coeliac artery was ligated dorsally. […] cannula was inserted into coeliac artery for perfusant afflux. The left gastric artery was ligated at the esophagus-stomach junction. The hepatic portal vein was ligated dorsally and cannulated ventrally (25G cannula; towards liver) for perfusant efflux. Immediately following the surgery, the rat was placed into the perfusion chamber and perfused at 3 ml/minute with modified KREBS-RINGER buffers [see. […] et al. 2012 Reproductive biology and endocrinology 10:110]. The buffers and perfusion chamber were kept warm at 37° C. and saturated with an O^2/CO^2 gases mixture. The buffers were 2 mM or 16 mM glucose and contained either vehicle (0.1%/DMSO) or Compound A (see Table 1) or 30 mM L-Arginine. The perfusant was collected by automated fraction collector at one sample per minute rate with about 90% rate of buffer recovery. Samples were frozen at -70° C. and later analyzed for total insulin and glucagon content. For the buffers: First the following mixture was prepared in water containing 10% NaCl (1.19M), 5% KCL (94 mM), 10% […] (250 mM), 5% CaCl2-2H2O (50 mM), 5% MgSO4-7H2O (24 mM), and 5% KH2PO4 (24 mM). The buffer was then oxygenated for 20 minutes, and 3% dextran and 0.2% BSA (insulin free) were added. Glucose was added from 1M stock solution as needed. FIGS. 4A-B illustrate a pancreatic perfusion assay in Wistar Han rats, and insulin (left panel) and glucagon (right panel) release measurements. As shown (lines with open circles), a basal level of insulin and a fair amount of glucagon were secreted from pancreas when perfused with low glucose (6 mM glucose). […] Application of GPR119 agonist (500 nM Compound A, lines with solid circles) enhanced both basal and glucose-stimulated pancreas insulin secretion (left panel).

[3] = 30 mpk, hypoglycemic status (50 mg/dL), FIGS. 8A-L
[4] = 100 mpk, hypoglycemic status (50 mg/dL), FIGS. 8A-L
[5] = high glucose (12 mM glucose) perfusion
[6] = low glucose (6 mM glucose) perfusion

## COCc1noc(N2CCC([C@H]3C[C@H]3CCOc3ccc(S(C)(=O)=O)c(F)c3)CC2)n1 [Compound M]
[1]; [3]
  blood glucagon secretion at hypoglycemic status: significantly elevated

## C[S+]([O-])c1ccc(OCCCC2CCN(C(=O)OC(C)(C)C)CC2)cc1F (centres unmarked) [Compound I]
[1]; [4]
  blood glucagon secretion at hypoglycemic status: significantly elevated

## CCc1noc(N2CCC([C@H]3C[C@H]3CCOc3ccc(S(C)(=O)=O)cn3)CC2)n1 [Compound V]
[1]; [3]
  blood glucagon secretion at hypoglycemic status: significantly elevated

## CC1(OC(=O)C2CC3COCC(C2)C3Oc2ncnc(Nc3ccc(C#N)cc3Cl)c2F)CC1 (centres unmarked) [Compound A]
[2]; [5]
  glucose-repressed glucagon secretion from pancreas: did not affect
  glucose-stimulated pancreas insulin secretion: enhanced
[2]; [6]
  basal glucagon release from pancreas: elevated basal glucagon release
  basal pancreas insulin secretion: enhanced

## COc1c(Nc2ccc(S(C)(=O)=O)nc2C)ncnc1OC1CCN(C(=O)OC(C)C)CC1 [Compound F]
[1]; [4]
  blood glucagon secretion at hypoglycemic status: significantly elevated

## COCc1cnc(N2CCC([C@H]3C[C@H]3CCOc3cc(F)c(CC(=O)N4CCC4)c(F)c3)CC2)nc1 [Compound B]
[1]; 10 mpk, compared with vehicle
  change of systemic blood glucose level during clamp: comparable and slower
  glucose infusion rate needed to maintain blood glucose at 50 mg/dl: comparable and slower
[1]; 10 mpk
  systemic epinephrine release at hypoglycemic status: only slightly altered
  c-peptide release: indistinguishable from vehicle control
[1]; 10 mpk, blood glucose dropping to 50 mg/dL, 15-60 minutes, FIGS. 7A-B
  blood glucagon secretion at hypoglycemic status: significantly elevated

## CS(=O)(=O)c1ccc(OCC[C@@H]2C[C@@H]2C2CCN(c3ncc(Cl)cn3)CC2)nc1 [Compound C]
[1]; [3]
  blood glucagon secretion at hypoglycemic status: significantly elevated

## CCc1cnc(N2CCC(c3nc(COc4ccc(-n5cnnn5)cc4)cs3)CC2)nc1 [Compound H]
[1]; [4]
  blood glucagon secretion at hypoglycemic status: significantly elevated

## COc1ccc(Cl)cc1C(=O)NCCc1ccc(S(=O)(=O)NC(=O)NC2CCCCC2)cc1 [GLIBENCLAMIDE, glibenclamide, reference compound]
[1]; 5 mpk
  change of systemic blood glucose level during clamp: rapidly decreases blood glucose level
  glucose infusion rate needed to maintain blood glucose at 50 mg/dl: requires much faster glucose infusion rate
  systemic epinephrine release at hypoglycemic status: inhibited this elevation
  c-peptide release: promotes c-peptide release
[1]; 5 mpk, blood glucose dropping to 50 mg/dL, 15-60 minutes, FIGS. 7A-B
  blood glucagon secretion at hypoglycemic status: suppressed glucagon secretion
